{"source": "paper PMC3673949", "about": "“Small Molecule R1498 as a Well-Tolerated and Orally Active Kinase Inhibitor for Hepatocellular Carcinoma and Gastric Cancer Treatment via Targeting Angiogenesis and Mitosis Pathways” (PLoS ONE, 2013)", "key": {"BEL-7402 cells": {"system": "BEL-7402 cells", "experiment": "Cell cycle distribution by flow cytometry", "assay_type": "cell-based, human", "details": "BEL-7402, 10 µM", "protocol": "(§1) DNA content was measured with a FACS-Calibur cytometer (Becton Dickinson, San Jose, CA) and cell cycle distribution was calculated as described previously."}, "SGC-7901 cells": {"system": "SGC-7901 cells", "experiment": "Cell cycle distribution by flow cytometry", "assay_type": "cell-based, human", "details": "SGC-7901, 10 µM", "protocol": "as §1"}, "BEL-7404 xenograft": {"system": "BEL-7404 xenograft", "experiment": "Xenograft efficacy study", "assay_type": "in vivo, BALB/C nu/nu nude mice", "description": "(§3) Tumor cells were inoculated into the right flank of BALB/C nu/nu female nude mice (5∼6 weeks, 16∼18 g, obtained from Sino-British SIPPR/BK Lab. Animal Ltd, Shanghai, China) at optimal density based on our in-house validation study. After the tumor was established and reached 100∼150 mm^3, the mice were randomized into ten mice per group and received treatment according to the schedule. The tumor growth was recorded three times a week with the measurement of length (L) and width (W) by caliper, and calculated as tumor volume (TV, mm^3) = 0.5*L*W*W (mm). […] The tumor regression of individual mouse was defined - the tumor volume at the end was less than the tumor volume when treatment was initiated."}, "HGC-27 xenograft": {"system": "HGC-27 xenograft", "experiment": "Xenograft efficacy study", "assay_type": "in vivo, BALB/C nu/nu nude mice", "details": "HGC-27, 25 mg/kg twice a day per oral gavage", "description": "as §3"}, "GC16 xenograft": {"system": "GC16 xenograft", "experiment": "Patient primary gastric tumor derived xenograft", "assay_type": "in vivo, BALB/C nu/nu nude mice", "details": "GC16, 25 mpk bid, p.o.", "protocol": "(§2) In human primary tumor models, fresh human gastric tumor tissues were directly implanted into nonobese diabetic and severe combined immune-deficient (NOD-SCID) mice within 5 hours post-surgery with 5 mm^3 fragments to establish primary tumor xenograft models. […] Treatment began when tumor volume reached 100∼150 mm^3. The tumor measurement and operation protocol was the same as cell line derived tumor model."}, "GC318 xenograft": {"system": "GC318 xenograft", "experiment": "Patient primary gastric tumor derived xenograft", "assay_type": "in vivo, BALB/C nu/nu nude mice", "details": "GC318, 25 mpk bid, p.o.", "protocol": "as §2"}, "GC46 xenograft": {"system": "GC46 xenograft", "experiment": "Patient primary gastric tumor derived xenograft", "assay_type": "in vivo, BALB/C nu/nu nude mice", "details": "GC46, 25 mpk bid, p.o.", "protocol": "as §2"}, "[1]": {"system": "human primary gastric tumor derived xenografts", "experiment": "Three human GC primary tumor derived xenograft models (overall)", "assay_type": "in vivo, BALB/C nu/nu nude mice", "details": "three patient derived gastric xenografts, 25 mg/kg", "protocol": "as §2"}, "CD31": {"system": "CD31", "experiment": "Immunohistochemistry of BEL-7402 tumors, angiogenesis marker", "assay_type": "in vivo, BALB/C nu/nu nude mice", "details": "BEL-7402 tumors from efficacy study", "protocol": "The 8 µm paraffin embedded tumor tissue slides prepared from tumor of in vivo efficacy studies were heated in a dry oven at 60°C for 1 hour, then deparaffinized and hydrolyzed by Leica autostainer XL ST5010 at room temperature. Antigen retrieval was carried out at 95∼99°C in citrate buffer (0.01 M, pH 6.0) heated by a medical microwave at 92–98°C for 5 min, then cooled down to room temperature. Then peroxidase-blocking reagent (DAKO, DK-2600, Glostrup Denmark) was applied to quench the endogenous peroxidase. The slides were incubated in blocking serum for 20 min, then covered by 100 µL phospho-Aurora A (Thr288) (C39D8) rabbit mAb (CST #3079, 1∶200 in TBS/T) or rabbit anti-human CD31 polyclonal antibody (Santa Cruz Biotech, sc-8306, Santa Cruz, CA, USA; 1∶200 in TBS/T) at 4°C overnight, then incubated in 100 µL DAKO Envision+/HRP, rabbit/mouse after being washed thoroughly with TBS. One hundred micro liters of substrate-chromogenic solution (DAB) were applied to the slides and incubated at room temperature for 10 min. The slides were rinsed gently with tap water for 15 min. Counterstain and dehydration was performed by XL ST5010 at room temperature. Finally, the slides were mounted with Permount mounting medium (Fisher Scientific, Miami, FL)."}, "[2]": {"experiment": "Metabolite profile in pooled liver microsomes", "assay_type": "in vitro ADME", "protocol": "Supplementary file pone.0065264.s005.doc: Table S4 Metabolite profiles in pooled liver microsomes. Pooled liver microsomes were incubated with R1498 and the metabolites were identified to predict the most close species to human. (DOC) Click here for additional data file."}}, "note": "“And” between values parts separate entries of the source, which are not always exact repeats. Identical values can stand only once."}
{"smiles": "COc1ccc2c(c1)C(c1ccccc1Cl)=Nc1c(n[nH]c1C)N2", "note": "[R1498]", "values": [{"measurement": "cells with >4N DNA content", "setting": "BEL-7402 cells; control 6.7%", "value": 17.6, "unit": "%"}, {"measurement": "cells in G2/M phases", "setting": "BEL-7402 cells; control 25.6%", "value": 57.0, "unit": "%"}, {"measurement": "cells with >4N DNA content (polyploid cells)", "setting": "SGC-7901 cells; control 3.1%", "value": 21.6, "unit": "%"}, {"measurement": "cells in G2/M phases", "setting": "SGC-7901 cells; control 25.2%", "value": 75.5, "unit": "%"}, {"measurement": "Final TGI%", "setting": "BEL-7404 xenograft; BEL-7404, 12.5 mg/kg twice a day per oral gavage, day of study termination (Table S2)", "value": 90, "unit": "%"}, {"measurement": "Body weight changes%", "setting": "BEL-7404 xenograft; BEL-7404, 12.5 mg/kg twice a day per oral gavage, before vs after treatment", "value": -1.9, "unit": "%"}, {"measurement": "Tumor Regression", "setting": "BEL-7404 xenograft; BEL-7404, 12.5 mg/kg twice a day per oral gavage, mice with regression/group", "value": "0/10"}, {"measurement": "Final TGI%", "setting": "BEL-7404 xenograft; BEL-7404, 3.125 mpk, bid, PO", "value": 47, "unit": "%"}, {"measurement": "Final TGI%", "setting": "BEL-7404 xenograft; BEL-7404, 6.25 mpk, bid, PO", "value": 67, "unit": "%"}, {"measurement": "Final TGI%", "setting": "HGC-27 xenograft; day of study termination", "value": 85, "unit": "%"}, {"measurement": "Body weight changes%", "setting": "HGC-27 xenograft; before vs after treatment", "value": 6, "unit": "%"}, {"measurement": "Tumor Regression", "setting": "HGC-27 xenograft; mice with regression/group", "value": "0/10"}, {"measurement": "Regression", "setting": "GC16 xenograft", "value": "3/10"}, {"measurement": "TGI%", "setting": "GC16 xenograft", "value": 89.3, "unit": "%"}, {"measurement": "Regression", "setting": "GC318 xenograft", "value": "1/10"}, {"measurement": "TGI%", "setting": "GC318 xenograft", "value": 91.6, "unit": "%"}, {"measurement": "Regression", "setting": "GC46 xenograft", "value": "2/10"}, {"measurement": "TGI%", "setting": "GC46 xenograft", "value": 73.6, "unit": "%"}, {"measurement": "Final TGI%", "setting": "[1]", "value": "73.6 ∼ 91.6%"}, {"measurement": "regression rates", "setting": "[1]", "value": "10–30% and 10∼30%"}, {"measurement": "CD31 staining in tumors", "setting": "CD31", "value": "decreased in a dose-dependent manner"}, {"measurement": "Parent (M0)", "setting": "[2]; Dog pooled liver microsomes", "value": 99.0}, {"measurement": "Total M%", "setting": "[2]; Dog pooled liver microsomes", "value": 1.0, "unit": "%"}, {"measurement": "Parent (M0)", "setting": "[2]; Human pooled liver microsomes", "value": 91.9}, {"measurement": "Total M%", "setting": "[2]; Human pooled liver microsomes", "value": 8.1, "unit": "%"}, {"measurement": "Parent (M0)", "setting": "[2]; Monkey pooled liver microsomes", "value": 43.3}, {"measurement": "Total M%", "setting": "[2]; Monkey pooled liver microsomes", "value": 56.7, "unit": "%"}, {"measurement": "Parent (M0)", "setting": "[2]; Mouse pooled liver microsomes", "value": 94.8}, {"measurement": "Total M%", "setting": "[2]; Mouse pooled liver microsomes", "value": 5.2, "unit": "%"}, {"measurement": "Parent (M0)", "setting": "[2]; Rat pooled liver microsomes", "value": 90.8}, {"measurement": "Total M%", "setting": "[2]; Rat pooled liver microsomes", "value": 9.2, "unit": "%"}]}
